In ChEMBL document CHEMBL1148226, “Evidences for the formation of bisbenzamidine-heme complexes in cell-free systems” (Bioorg Med Chem Lett, 2004):

How the values were obtained:
[1] = test system: Plasmodium falciparum; test: In vitro inhibitory concentration against chloroquine-resistant Plasmodium falciparum; Not active; type: functional, organism-based
[2] = test system: Plasmodium falciparum; test: In vitro inhibitory concentration against chloroquine-sensitive Plasmodium falciparum; Not active; type: functional, organism-based

Row | Compound | IC50 [1] | IC50 [2]
1 | CN1CCN(C)C1c1ccc(N2CCN(c3ccc(C4N(C)CCN4C)cc3)CC2)cc1 | Not Active | Not Active
2 | COc1ccc(N)cc1 | Not Active | Not Active
3 | CCOC(=O)c1ccc(N2CCN(c3ccc(C(=O)OCC)cc3)CC2)cc1 | Not Active | Not Active
4 | Cl.N=C(N)c1ccc(N)cc1 | Not Active | Not Active
5 | Nc1ccccc1 [ANILINE] | Not Active | Not Active
6 | CN [METHYLAMINE] | Not Active | Not Active
